Values after ≈ are worked out from the molar mass of the structure shown. Like-named read-outs stand apart in the source and are kept apart here.
Key:
Type in all cases: cell-based
A. fumigatus (A65) = assay: MIC90 growth inhibition of molds (EUCAST), A. fumigatus (A65); conditions: Aspergillus fumigatus, RPMI 1640, 2% glucose, read by eye and microscopically
Experimental: Determination of MICs (minimal inhibitory concentration) against Candida species was carried out according to the European Committee of Antifungal Susceptibility Testing. Concentration of yeast cells was determined by photometer and adjusted to a turbidity of 0.5 according to McFarland standard. […] Growth inhibition of molds was determined by eye and microscopically, following EUCAST guidelines. […] All assays were carried out twice.

A. fumigatus (R7) = assay: MIC90 growth inhibition of molds (EUCAST), A. fumigatus (R7); conditions: Aspergillus fumigatus
Experimental: (§1) Determination of MICs (minimal inhibitory concentration) against Candida species was carried out according to the European Committee of Antifungal Susceptibility Testing. Concentration of yeast cells was determined by photometer and adjusted to a turbidity of 0.5 according to McFarland standard. MIC90 was determined by microdilution plate reader (Sunrise Tecan) at 450 nm, after 24 h incubation at 37°C. MIC90 was defined as the minimal concentration of chemical causing 90% growth inhibition, respectively. Growth inhibition of molds was determined by eye and microscopically, following EUCAST guidelines. All substances were dissolved in DMSO and diluted in RPMI 1640 medium, containing 2% glucose. All assays were carried out twice.

R. microsporus = assay: MIC90 growth inhibition of molds (EUCAST), R. microsporus; conditions: Rhizopus microsporus
Experimental: as §1

R. arrhizus (oryzae) = assay: MIC90 growth inhibition of molds (EUCAST), R. arrhizus (oryzae); conditions: Rhizopus arrhizus
Experimental: as §1

Yarrowia lipolytica = assay: MIC100 microdilution assay against Yarrowia lipolytica
Experimental: In previous research we found a good correlation between MIC values against Yarrowia lipolytica and pathogenic Candida species.
Determination of MICs against Yarrowia lipolytica (DSMZ, Braunschweig, Germany) was carried out according to lit. Yarrowia lipolytica was cultivated in AC‐agar (Sigma Aldrich). Concentration of yeast cells was determined by photometer and adjusted to a turbidity of 0.5 according to McFarland standard at 600 nm. All substances were dissolved in DMSO or methanol.
Determination of MICs (minimal inhibitory concentration) against Yarrowia lipolytica was carried out according to Lit.^[13] Concentration of yeast cells was determined by photometer and adjusted to a turbitity of 0.5 according to McFarland Standard.

C. glabrata = assay: MIC90 microdilution (EUCAST), C. glabrata; conditions: Nakaseomyces glabratus, 24 h
Experimental: as §1

A. fumigatus (R16) = assay: MIC90 growth inhibition of molds (EUCAST), A. fumigatus (R16); conditions: Aspergillus fumigatus
Experimental: as §1

C. krusei = assay: MIC90 microdilution (EUCAST), C. krusei; conditions: Pichia kudriavzevii, 24 h
Experimental: as §1

C. albicans = assay: MIC90 microdilution (EUCAST), C. albicans; conditions: Candida albicans, 24 h
Experimental: as §1

[1] = MTT cytotoxicity assay against HL 60 cells; conditions: human, HL-60 cells (human leukemia cells); HL 60 cell line; MTT assay; read-out: IC50 cytotoxicity
Experimental: The cytotoxicity of the active compounds was checked in an MTT assay against human HL 60 cells. […] Although, this corresponds to the MIC range that would be needed in treatment, the values are within the range observed for commonly used antimycotics such as amorolfine and posaconazole. All active compounds were evaluated for their biopharmaceutical behavior and drug‐likeness using the online program SwissADME [26] and should show oral bioavailability according to the Lipinski rules of five.
HL‐60 cells (human leukemia cells, DSM No. ACC3) were obtained from DSMZ (German Collection of Microorganisms and Cell Cultures, Braunschweig, Germany) and cultivated in RPMI 1640 medium with 10% fetal bovine serum (FBS), both from PAA Laboratories, Cölbe, Germany) without the addition of antibiotics at 37°C in a humidified atmosphere containing 5% CO2. The assay was performed according to lit.

[2] = 48 h, read-out: Biological Activity MIC Yarrowia lipolytica
[3] = microdilution, 48 h, 25°C, 600 nm, read-out: MIC100

Row | SMILES | MIC90 (A. fumigatus (A65)) | MIC90 (A. fumigatus (R7)) | MIC90 (R. microsporus) | MIC (Yarrowia lipolytica; [2]) | MIC (Yarrowia lipolytica; 48 h, read-out: MIC100) | MIC90 (C. glabrata) | MIC90 (A. fumigatus (R16)) | MIC90 (C. krusei) | MIC90 (C. albicans) | further results
1 | COc1cc2c(cc1OC)CN(C1CCN(CCC(C)CCC=C(C)C)CC1)CC2 (racemic) [6j, (±)‐2‐[1‐(3,7‐Dimethyloct‐6‐en‐1‐yl)piperidin‐4‐yl]‐6,7‐dimethoxy‐1,2,3,4‐tetrahydroisoquinoline] | > 32 µg/mL | > 32 µg/mL | > 32 µg/mL | 3.1 µg/mL | 3.1 µg/mL | > 32 µg/mL | > 32 µg/mL | 32 µg/mL (≈ 77.2 µM) | > 32 µg/mL | MIC90 (R. arrhizus (oryzae)): > 32 µg/mL; MIC (Yarrowia lipolytica; read-out: MIC100 (molar value in brackets)): 7.5 µM; IC50 [1]: 75 µg/mL (≈ 181 µM)
2 | CCCCCCCCN1CCC(N2CCC3CCCCC3C2)CC1 (racemic) [6h, (±)‐2‐(1‐Octylpiperidin‐4‐yl)decahydroisoquinoline] | > 32 µg/mL | > 32 µg/mL | > 32 µg/mL | 3.1 µg/mL | 3.1 µg/mL | > 32 µg/mL | > 32 µg/mL | 8 µg/mL (≈ 23.9 µM) | > 32 µg/mL | MIC (R. arrhizus (oryzae); read-out: MIC90): 32 µg/mL (≈ 95.6 µM); IC50 [1]: 75 µg/mL (≈ 224 µM)
3 | COc1cc2c(cc1OC)CN(C1CCN(Cc3ccccc3)CC1)CC2 [7b, 2‐(1‐Benzylpiperidin‐4‐yl)‐6,7‐dimethoxy‐1,2,3,4‐tetrahydroisoquinoline] | > 32 µg/mL | > 32 µg/mL | > 32 µg/mL | > 100 µg/mL | > 100 µg/mL | > 32 µg/mL | > 32 µg/mL | > 32 µg/mL | > 32 µg/mL | MIC90 (R. arrhizus (oryzae)): > 32 µg/mL
4 | CCCCCCCC(=O)N1CCC(N2CCc3ccccc3C2)CC1 [5b, 1‐[4‐(3,4‐Dihydroisoquinolin‐2(1H)‐yl)piperidin‐1‐yl]octan‐1‐one] | – | – | – | > 100 µg/mL | > 100 µg/mL | – | – | – | – | –
5 | CCCCCCCC(=O)N1CCC(N2CCc3cc(OC)c(OC)cc3C2)CC1 [5e, 1‐[4‐(6,7‐Dimethoxy‐3,4‐dihydroisoquinolin‐2(1H)‐yl)‐piperidin‐1‐yl]‐octan‐1‐one] | – | – | – | > 100 µg/mL | > 100 µg/mL | – | – | – | – | –
6 | Clc1ccccc1C(c1ccccc1)(c1ccccc1)n1ccnc1 [Clotrimazole, reference compound] | – | – | – | – | – | – | – | – | – | MIC (Yarrowia lipolytica; [3]): 0.4 µg/mL; MIC (Yarrowia lipolytica; microdilution, same value given in µM, read-out: MIC100 (molar value in brackets)): 1.2 µM
7 | CC(C)(C)OC(=O)N1CCC(N2CCc3ccccc3C2)CC1 [3a, tert‐Butyl 4‐(3,4‐dihydroisoquinolin‐2(1H)‐yl)piperidine‐1‐carboxylate] | – | – | – | > 100 µg/mL | > 100 µg/mL | – | – | – | – | –
8 | CCCCCCCC(=O)N1CCC(N2CCC3CCCCC3C2)CC1 (racemic) [5h, (±)‐1‐[4‐(Octahydroisoquinolin‐2(1H)‐yl)piperidin‐1‐yl]octan‐1‐one] | – | – | – | > 100 µg/mL | > 100 µg/mL | – | – | – | – | –
9 | c1ccc(CN2CCC(N3CCc4ccccc4C3)CC2)cc1 [7a, 2‐(1‐Benzylpiperidin‐4‐yl)‐1,2,3,4‐tetrahydroisoquinoline] | > 32 µg/mL | > 32 µg/mL | > 32 µg/mL | > 100 µg/mL | > 100 µg/mL | > 32 µg/mL | > 32 µg/mL | > 32 µg/mL | > 32 µg/mL | MIC90 (R. arrhizus (oryzae)): > 32 µg/mL
10 | C1CC[C@H]2CN(C3CCNCC3)CC[C@@H]2C1 (racemic) [4c, (±)‐2‐(Piperidin‐4‐yl)decahydroisoquinoline] | – | – | – | – | – | – | – | – | – | MIC (Yarrowia lipolytica; [3]): > 100 µg/mL; MIC (Yarrowia lipolytica; supplement table, MIC100, 48 h, 25°C, 600 nm, read-out: Biological Activity MIC Yarrowia lipolytica): > 100 µg/mL
11 | CC[C@@H]([C@H](C)O)n1ncn(-c2ccc(N3CCN(c4ccc(OC[C@@H]5CO[C@@](Cn6cncn6)(c6ccc(F)cc6F)C5)cc4)CC3)cc2)c1=O [Posaconazole, reference compound] | – | – | – | – | – | – | – | – | – | IC50 [1]: 5 µg/mL (≈ 7.13 µM)
12 | COc1cc2c(cc1OC)CN(C1CCNCC1)CC2 [4b, 6,7‐Dimethoxy‐2‐(piperidin‐4‐yl)‐1,2,3,4‐tetrahydroisoquinoline] | – | – | – | > 100 µg/mL | > 100 µg/mL | – | – | – | – | –
